For one compound, clearance and bioavailability results are on record in ChEMBL document CHEMBL1933035, “Discovery of pyrrolidine-based β-secretase inhibitors: lead advancement through conformational design for maintenance of ligand binding efficiency” (Bioorg Med Chem Lett, 2012).

Structures are written as SMILES.

Data set [1] is described as follows: Clearance in rat at 2 mg/kg, iv. It is filed as ADME, organism-based. Set-up: dose 2 mg/kg, route intravenous. Particulars: in vivo.
The nature of data set [2]: Oral bioavailability in rat at 10 mg/kg. It counts as ADME, organism-based. Particulars: in vivo.

Consider `O=C([C@@H]1CNC[C@]12CCCc1nc(Cl)ccc12)N1CC[C@@H](c2ccccc2)C[C@H]1C1CCCCC1`, for which, in data set [1], the clearance – broadly, the volume of plasma or blood freed of the substance per unit of time – came to 15 mL/min/kg. The bioavailability (usually the share of a dose that reaches the circulation, judged against a reference dose that is usually intravenous) in data set [2] is 44%.
